Common to all, as to assay: relative viability (nuclei count vs DMSO), 5 days (fraction); higher = more cells survive
Compound in the assay “Dasatinib + Crizotinib”: Cc1nc(Nc2ncc(C(=O)Nc3c(C)cccc3Cl)s2)cc(N2CCN(CCO)CC2)n1 [Dasatinib] + C[C@@H](Oc1cc(-c2cnn(C3CCNCC3)c2)cnc1N)c1c(Cl)ccc(F)c1Cl [Crizotinib] (partner 1 µM)
The gist of the method: (§1)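 The day after seeding in 1536-well plates, lung cancer cell lines were treated by pin tool with a single drug, or with a fixed anchor-drug dose together with five library-drug doses (not always all listed) in √10 steps. After 5 days, a combined fix-and-stain solution (final 0.05% Triton X-100, 1% formaldehyde, 1 ug/ml Hoechst) was added. Nuclei counted on 4× images gave relative viability as treated counts over vehicle counts, reported as the median of duplicate plates.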

Compound in the assay “Dasatinib + Bortezomib”: Cc1nc(Nc2ncc(C(=O)Nc3c(C)cccc3Cl)s2)cc(N2CCN(CCO)CC2)n1 [Dasatinib] + CC(C)C[C@H](NC(=O)[C@H](Cc1ccccc1)NC(=O)c1cnccn1)B(O)O [Bortezomib] (partner 0.002 µM)
The gist of the method: as §1

Compound in the assay “Dasatinib + Trametinib”: Cc1nc(Nc2ncc(C(=O)Nc3c(C)cccc3Cl)s2)cc(N2CCN(CCO)CC2)n1 [Dasatinib] + CC(=O)Nc1cccc(-n2c(=O)n(C3CC3)c(=O)c3c(Nc4ccc(I)cc4F)n(C)c(=O)c(C)c32)c1 [Trametinib] (partner 0.02 µM)
The method, boiled down: as §1

Compound in the assay “ALW-II-49-7 + Foretinib”: Cc1ccc(C(=O)Nc2cccc(C(F)(F)F)c2)cc1Nc1cncc(C(N)=O)c1 [ALW-II-49-7] + COc1cc2c(Oc3ccc(NC(=O)C4(C(=O)Nc5ccc(F)cc5)CC4)cc3F)ccnc2cc1OCCCN1CCOCC1 [Foretinib] (partner 0.25 µM)
The method, boiled down:
as §1

Turning to UMC-11, the relative viability with Dasatinib + Crizotinib (first compound 0.005 µM) was 0.537; in the assay with Dasatinib + Crizotinib (first compound 0.01581 µM), 0.389; with Dasatinib + Crizotinib (first compound 0.05 µM) it was 0.359; in the assay with Dasatinib + Crizotinib (first compound 0.1581 µM), 0.258; with Dasatinib + Crizotinib (first compound 0.5 µM), 0.242; in the assay with Dasatinib + Bortezomib (first compound 0.005 µM), 0.668. Moreover, the relative viability came to 0.688 in the assay with Dasatinib + Bortezomib (first compound 0.01581 µM); 0.806 with Dasatinib + Bortezomib (first compound 0.05 µM); 0.313 in the assay with Dasatinib + Bortezomib (first compound 0.1581 µM); 0.291 with Dasatinib + Bortezomib (first compound 0.5 µM); 0.675 in the assay with Dasatinib + Trametinib (first compound 0.005 µM); 0.63 with Dasatinib + Trametinib (first compound 0.01581 µM). For the same cell line, the relative viability amounted to 0.631 with Dasatinib + Trametinib (first compound 0.05 µM); 0.358 with Dasatinib + Trametinib (first compound 0.1581 µM); 0.317 with Dasatinib + Trametinib (first compound 0.5 µM); 1.11 with ALW-II-49-7 + Foretinib (first compound 0.08 µM); 1.06 with ALW-II-49-7 + Foretinib (first compound 0.253 µM); 0.991 with ALW-II-49-7 + Foretinib (first compound 0.8 µM). In addition, the relative viability turned out to be 1.07 in the assay with ALW-II-49-7 + Foretinib (first compound 2.53 µM) and 1.03 with ALW-II-49-7 + Foretinib (first compound 8 µM).

These data come from the supplement of paper PMC10307832.
